# From patent US20120316247A1, “PREVENTION AND TREATMENT OF POST-OPERATIVE COGNITIVE DYSFUNCTION (POCD)” (priority 2009, published 2012)
# “And” between values parts separate entries of the source, which are not always exact repeats. Identical values can stand only once. Like-named read-outs stand apart in the source and are kept apart here.
# What was measured:
# caspase-3 = conditions: for sevoflurane-induced caspase-3 activation, percentage of control (100%): sevoflurane alone 356%; for caspase-3 activation, fold of control (1-fold): 3% sevoflurane for 6 h, FIG. 4B
# Source text: (§1) The animal protocol was approved by the Standing Committee on Animals at Massachusetts General Hospital (Boston, Mass.). Naive mice (C57BL/6J mice [The JacksonLaboratory, Bar Harbor, Me.]) and Alzheimer's disease (AD) transgenic mice (B6.Cg-Tg[APPswe, PSEN1dE9]85 Dbo/J, [The Jackson Laboratory]) were distinguished by genotyping. All animals (3-12 mice per experiment) were 6 days old at the time of anesthesia and were randomized by weight and gender into experimental groups that received either 3 or 2.1% sevoflurane plus 60% oxygen for either 6 or 2 h, and control groups received 60% oxygen for 6 or 2 h at identical flow rates in identical anesthetizing chambers. […] Anesthetic and oxygen concentrations were measured continuously (Datex, Tewksbury, Mass.), and the temperature of the anesthetizing chamber was controlled to maintain the rectal temperature of the mice at 37°±0.5° C. In the interaction studies, the inositol trisphosphate receptor (IP3R) antagonist 2-aminoethoxydiphenyl borate (2-APB) (5 and 10 mg/kg) was administered to the mice via intraperitoneal injection 10 min before the anesthetic was administered. 2-APB was first dissolved in dimethyl sulfoxide to 20 μg/μl and then diluted with saline to 0.25 μg/μl (1:80 dilution) and to 0.5 μg/μl (1:40 dilution).
# (§2) Immediately after sevoflurane anesthesia, the mouse was decapitated, and the brain cortex was harvested. The brain tissues were homogenized in an immunoprecipitation buffer (10 mM Tris-HCl, pH 7.4, 150 mM NaCl, 2 mM ethylenediaminetetraacetic acid, and 0.5% Nonidet P-40) plus protease inhibitors ([1 μg/ml aprotinin, 1 μg/ml leupeptin, and 1 μg/ml pepstatin A]; [Roche, Indianapolis, Ind.]). The lysates were collected, centrifuged at 13,000 rpm for 15 min, and quantified for total proteins by using the bicinchoninic acid protein assay kit (Pierce, Iselin, N.J.).
# (§3) The harvested brain tissues were subjected to Western blots as described by Xie et al. (16). Briefly, 60 μg of each lysate was separated on sodium dodecyl sulfate polyacrylamide gel electrophoresis gels and transferred to polyvinylidene difluoride blots (Bio-Rad, Hercules, Calif.) using a semidry electrotransfer system (Amersham Biosciences, San Francisco, Calif.). The blot was incubated overnight at 4° C. with primary antibodies, followed by washes and incubation with appropriate secondary antibodies, and visualized with a chemoluminescence system. A caspase-3 antibody (1:1,000 dilution; Cell Signaling Technology, Danvers, Mass.) was used to recognize the caspase-3 fragment (17-20 kDa) resulting from cleavage at aspartate position 175 and fulllength (FL) caspase-3 (35-40 kDa). TNF-α levels were recognized by antibody ab6671 (26 kDa; 1:1,000; Abcam, Cambridge, Mass.). The antibody to nontargeted protein β-actin was used to control for loading differences in total protein amounts. The figures showing blots with only the caspase-3 fragment are the same Western blots with extended exposure time during the development of the film. The signal of the Western blot band was detected using Molecular Imager VersaDoc MP 5000 System (Bio-Rad). The intensity of signals was analyzed using a Bio-Rad image program (Quantity One) and a National Institutes of Health Image Version 1.37 (National Institutes of Health, Bethesda, Md.). Western blots were quantified using two steps. First, levels of β-actin was used to normalize (e.g., determining the ratio of FL caspase-3 amount to β-actin amount) the levels of proteins to control for loading differences in total protein amounts.
# Aβ = conditions: 2-APB (10 mg/kg, FIG. 7D) before 3% sevoflurane for 6 h; neonatal naïve mice; sevoflurane alone 304%; P=0.042
# Source text: as §1
# (§4) Data were expressed as mean±SD.
# [1] = tested on: Aβ40 and Aβ42 oligomerization
# Method: (§5) To this end, H4 human neuroglioma cells stably transfected to express human full-length wild-type APP (H4-APP cells) in cell culture media with […] Aβ40, Aβ42 or Aβ40 plus Aβ42, were treated with an clinically relevant concentration of propofol (e.g., 100 μM) for one hour, and then with 2% isoflurane (plus 21% O2 and 5% CO2) for six hours. Wild-type H4 human neuroglioma cells (H4 naïve cells) and primary neurons from naïve (C57BL/6) mice were also used in the study for comparison. To obtain primary neurons, naïve (C57BL/6) mice with gestation stage of day 15 were euthanized with CO2. The primary neurons were harvested from the embyros. The harvested neurons were cultured for 7 to 10 days prior to treatment.
# (§6) Anesthesia machine was used for the delivery of 2% isoflurane to the cells or neurons plated in a six well plate in a sealed plastic box located in a 37° C. incubator and Datex infrared gas analyzer was used for the monitoring (FIGS. 9A to 9C). The cells and the cell culture media were harvested at the end of the treatment. Caspase-3 activation and Aβ oligomerization were measured with quantitative Western blotting. Chemiluminescence signal from the western blot membranes was captured using a VersaDoc Imaging System and images were analyzed using Quantity One software (BioRad Hercules, Calif.).
# In addition to the propofol effects on caspase-3 activation, its effects on Aβ oligomerization were assessed. H4-APP cell culture media were exposed to 2% isoflurane with and without 100 μM propofol for six hours. Antibody mAb 6E10 (1:3,000, Sigma) was used to detect Aβ40 and Aβ42 oligomerization.
# [2] = tested on: primary neurons from naïve (C57BL/6) mice; conditions: propofol before 2% isoflurane, gestation day 15, FIG. 12
# Method: as §5, §6
# (§7) Apoptosis is a programmed cell death requiring cysteine proteases called caspases, and caspase-3 activation is one of the final steps of apoptosis. Thus, a caspase-3 antibody (Cell Signaling, Danvers, Mass.) was used to recognize full-length (35 kDa), and the large fragment of cleaved caspase-3 (17-20 kDa).
# H4 naïve cells = conditions: propofol before 2% isoflurane, FIG. 11
# Method: as §5, §6, §7
# H4-APP cells = tested on: H4-APP cells
# Method: as §5, §6, §7
# [3] = tested on: TUNEL-positive cells (apoptosis) in the brain tissues; assay: TUNEL staining of brain sections of neonatal mice; format: in vivo; conditions: 3% sevoflurane plus 60% oxygen for 6 h, FIG. 5B
# Method: Terminal Deoxynucleotidyl Transferase dUTP Nick End Labeling Staining Assay. […] The mouse brain tissues were removed and exposed to immersion fixation for 24 h at 4° C. in 4% paraformaldehyde, and then 5-μm paraffin-embedded sections were made from the brain tissues. TMRred kit (Roche, Palo Alto, Calif.) was used for terminal deoxynucleotidyl transferase dUTP nick end labeling (TUNEL) staining. Briefly, the brain sections were incubated in a permeabilization solution and then incubated with a TUNEL reaction mixture. Finally, the sections were incubated with 10 μg/ml Hoechst 33342 in a humidified dark chamber. The sections from the same brain areas between control group mice and the sevoflurane-treated mice were then analyzed in a mounting medium under a fluorescence microscope. The TUNEL-positive cells and total cells in five areas of the brain section from each of the mice in the experiments were counted blind-fold under a 20× objective microscope lens. For the double immunocytochemistry staining to identify the cell type of the TUNEL-positive cells, the mouse brain tissues were quickly removed after sevoflurane anesthesia, put into a container with dry ice and ethanol, and then kept in a −80° C. freezer. Five-micrometer frozen sections were cut using a cryostat. […] Finally, the sections were mounted and immediately viewed using a fluorescence microscope.
# as §4
# [4] = tested on: amyloid precursor protein (APP); conditions: mouse, in vivo
# Source text: as §1, §2, §3
# [5] = Mortality of neonatal mice after sevoflurane anesthesia; format: in vivo; conditions: 6-day-old mice
# Method: Naive mice (C57BL/6J mice [The JacksonLaboratory, Bar Harbor, Me.]) and Alzheimer's disease (AD) transgenic mice (B6.Cg-Tg[APPswe, PSEN1dE9]85 Dbo/J, [The Jackson Laboratory]) were distinguished by genotyping. All animals (3-12 mice per experiment) were 6 days old at the time of anesthesia and were randomized by weight and gender into experimental groups that received either 3 or 2.1% sevoflurane plus 60% oxygen for either 6 or 2 h, and control groups received 60% oxygen for 6 or 2 h at identical flow rates in identical anesthetizing chambers. […] The high concentration of sevoflurane anesthesia was used to illustrate the difference of sevoflurane-induced neurotoxicity between neonatal naïve and AD transgenic mice. […] Anesthetic and oxygen concentrations were measured continuously (Datex, Tewksbury, Mass.), and the temperature of the anesthetizing chamber was controlled to maintain the rectal temperature of the mice at 37°±0.5° C.
# [6] = tested on: apoptosis in the developing rat brain; conditions: intraventricular injection, Wei and Xie, 6 Curr. Alzheimer Res. 30 (2009); cited from earlier work
smiles,measurement,setting,value
"NCCOB(c1ccccc1)c1ccccc1 [2-APB, 2-aminoethoxydiphenyl borate]","sevoflurane-induced caspase-3 activation, percentage of control (100%)","caspase-3; 5 mg/kg 2-APB i.p. 10 min before 3% sevoflurane for 6 h, neonatal naïve mice, P=0.001",149%
same,"sevoflurane-induced caspase-3 activation, percentage of control (100%)","caspase-3; 10 mg/kg 2-APB i.p. 10 min before 3% sevoflurane for 6 h, neonatal naïve mice, P=0.005",115%
same,"sevoflurane-induced increase in Aβ levels, percentage of control",Aβ,157%
"CC(C)c1cccc(C(C)C)c1O [propofol, 2,6-diisopropylphenol]",effect on isoflurane-induced Aβ40 (oligomerization),"[1]; 100 μM propofol for one hour prior to 2% isoflurane, H4-APP cells, FIG. 14B",attenuated
same,effect on isoflurane-induced Aβ42 (oligomerization),"[1]; 100 μM propofol for one hour prior to 2% isoflurane, H4-APP cells, FIG. 14C",attenuated
same,Aβ oligomerization by propofol alone,"[1]; propofol alone, no isoflurane",did not induce
same,effect on isoflurane-induced caspase-3 activation,[2],did not attenuate
same,effect on isoflurane-induced caspase-3 activation,H4 naïve cells,did not attenuate
same,effect on isoflurane-induced caspase-3 activation,"H4-APP cells; 100 μM propofol for one hour prior to 2% isoflurane for six hours, H4-APP cells, FIG. 10",attenuated isoflurane-induced caspase-3 activation
same,caspase-3 activation by propofol alone,"H4-APP cells; propofol alone, no isoflurane",did not induce
FCOC(C(F)(F)F)C(F)(F)F [sevoflurane],"TUNEL-positive cells (apoptosis), fold of control (1-fold)",[3]; neonatal AD transgenic mice,2.13 fold and 2.45 fold
same,"TUNEL-positive cells (apoptosis), fold of control (1-fold)","[3]; neonatal naïve mice, P=0.001",2.08 fold
same,"caspase-3 activation, percentage of control (100%)","caspase-3; 2.1% sevoflurane for 6 h, neonatal AD transgenic mice, FIG. 2D, P=0.045",178%
same,"caspase-3 activation, percentage of control (100%)","caspase-3; 2.1% sevoflurane for 6 h, neonatal naïve mice, FIG. 2B, P=0.002",183%
same,"caspase-3 activation, percentage of control (100%)","caspase-3; 3% sevoflurane for 2 h, neonatal naïve mice, FIG. 3B, P=0.074 (did not increase)",128%
same,"caspase-3 activation, fold of control (1-fold)",caspase-3; neonatal AD transgenic mice,2.45 fold and 2.13 fold
same,"caspase-3 activation, fold of control (1-fold)","caspase-3; neonatal naïve mice, P=0.003",1.48 fold
same,"caspase-3 activation, percentage of control (100%)","caspase-3; 3% sevoflurane for 6 h alone, neonatal naïve mice, 2-APB interaction study, FIG. 7B, P=0.002",356%
same,"increase in caspase-3 cleavage (activation), ratio of cleaved caspase-3 fragment to FL-caspase-3, compared with control","caspase-3; 3% sevoflurane plus 60% oxygen for 6 h, 6-day-old neonatal naïve mice, FIG. 1B, P=0.009",242%
same,decrease in the ratio of APP-C83 to APP-FL compared with control,[4],45%
same,decrease in the ratio of APP-C99 to APP-FL compared with control,[4],33%
same,death of the mice,[5]; 2.1% sevoflurane,did not cause the death of the mice
same,mortality rate of the mice,[5]; 3% sevoflurane plus 60% oxygen for 6 h,10-15%
C1CCC[C@H]2CCCN3CC[C@@H](CCCCCC[C@@H]4CCCN5CC[C@@H](CC1)O[C@@H]45)O[C@@H]23 [xestospongin C],effect on isoflurane-induced apoptosis,[6],inhibits isoflurane-induced apoptosis
